Values quoted from earlier work in patent US8124639B2, “Bicyclic [3.1.0] heteroaryl amides as type 1 glycine transport inhibitors” (Pfizer Inc., priority 2005, dated 2012).

Tested on: NMDA receptor
Settings: effect blocked by a specific NMDA-site antagonist and a glycine-site antagonist

CN(CCC(Oc1ccc(-c2ccccc2)cc1)c1ccc(F)cc1)CC(=O)O (stereo not shown) [NFPS]
effect on postsynaptic current driven by the NMDA receptor: increased the postsynaptic current driven by the NMDA receptor
